Each structure is given as a SMILES string. Several values for one entry are separate records, joined by “and”; a condition that tells them apart may be missing. Identical values can stand only once.

The assay addresses T1, human GPR119 (Homo sapiens, UniProt Q8TDV5).
T1 construct: host or cells: HEK293-CRE beta-lactamase cells
T1 sequence (Q8TDV5 1-335): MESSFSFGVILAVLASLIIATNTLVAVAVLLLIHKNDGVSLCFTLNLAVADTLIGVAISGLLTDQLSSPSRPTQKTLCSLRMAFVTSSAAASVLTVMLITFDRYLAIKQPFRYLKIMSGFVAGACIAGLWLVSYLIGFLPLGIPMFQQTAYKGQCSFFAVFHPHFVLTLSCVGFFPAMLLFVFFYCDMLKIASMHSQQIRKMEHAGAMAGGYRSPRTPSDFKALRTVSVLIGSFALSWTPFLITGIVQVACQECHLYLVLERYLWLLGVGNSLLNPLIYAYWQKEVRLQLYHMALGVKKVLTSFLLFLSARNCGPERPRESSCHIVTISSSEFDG
In words: cAMP functional assay (HTRF, hGPR119 HEK-CRE beta-lactamase cells). Particulars: one value per run; for EC50: hGPR119 HEK-CRE beta-lactamase cells, HTRF cAMP, 30 min incubation with IBMX; for Intrinsic Activity* (cAMP) / Emax: percent of maximal activity relative to standard GPR119 agonist (WO2005121121) at 10 μM; for Emax: read-out: Intrinsic Activity* (cAMP). The assay is classed as cell-based. Here is the method:
GPR119 agonist activity was also determined with a cell-based assay utilizing an
HTRF (Homogeneous Time-Resolved Fluorescence) cAMP detection kit (cAMP dynamic 2 Assay Kit; Cis Bio cat # 62AM4PEC) that measures cAMP levels in the cell. The method is a competitive immunoassay between native cAMP produced by the cells and the cAMP labeled with the dye d2. The tracer binding is visualized by a Mab anti-cAMP labeled with Cryptate. The specific signal (Le. energy transfer) is inversely proportional to the concentration of cAMP in either standard or sample.
Specifically, hGPR119 HEK-CRE beta-lactamase cells (Invitrogen 2.5×10^7/mL; the same cell line used in the beta-lactamase assay described above) are removed from cryopreservation and diluted in growth medium (Dulbecco's modified Eagle medium high glucose (DMEM; Gibco Cat # 11995-065), 1% charcoal dextran treated fetal bovine serum (CD serum; HyClone Cat # SH30068.03), lx MEM Nonessential amino acids (Gibco Cat # 15630-080) and 25 mM HEPES pH 7.0 (Gibco Cat # 15630-080)). The cell concentration was adjusted to 1.5×10^5 cells/mL and 30 mLs of this suspension was added to a T-175 flask and incubated at 37 degrees Celsius in a humidified environment in 5% carbon dioxide. After 16 hours (overnight), the cells were removed from the T-175 flask (by rapping the side of the flask), centrifuged at 800×g and then re-suspended in assay medium (1×HBSS+CaCl2+MgCl2 (Gibco Cat # 14025-092) and 25 mM HEPES pH 7.0 (Gibco Cat # 15630-080)). The cell concentration was adjusted to 6.25×10^5 cells/mL with assay medium and 8 μl of this cell suspension (5000 cells) was added to each well of a white Greiner 384-well, low-volume assay plate (VWR cat # 82051-458).
Varying concentrations of each compound to be tested were diluted in assay buffer containing 3-isobutyl-1-methylxanthin (1BMX; Sigma cat #15879) and added to the assay plate weds in a volume of 2 microL (final BMX concentration was 400 microM and final DMSO concentration was 0.58%). Following 30 minutes incubation at room temperature, 5 microL of labeled d2 cAMP and 5 microL of anti-cAMP antibody (both diluted 1:20 in cell lysis buffer; as described in the manufacturers assay protocol) were added to each well of the assay plate. The plates were then incubated at room temperature and after 60 minutes, changes in the HTRF signal were read with an Envision 2104 multilabel plate reader using excitation of 330 nm and emissions of 615 and 665 nm. Raw data were converted to nM cAMP by interpolation from a cAMP standard curve (as described in the manufacturer's assay protocol) and EC50 determinations were made from an agonist-response curves analyzed with a curve fitting program using a 4-paramter logistic dose response equation.
(In general: In TR-FRET formats the signal depends on donor and acceptor labels being close together.)

One may read the EC50 as the concentration at which the effect is half-maximal. A low value points to higher potency in that assay. `Cc1c(O[C@H]2CCN(C(=O)OC(C)C)C[C@H]2F)ncnc1N1CCn2nccc21` (racemic) [Example 4, Isopropyl (3R,4S)-4-{[6-(2,3-dihydro-1H-imidazo[1,2-b]pyrazol-1-yl)-5-methylpyrimidin-4-yl]oxy}-3-fluoropiperidine-1-carboxylate (racemic)]: the EC50 was 32 nM and 45 nM; the “Intrinsic Activity* (cAMP)” value is on record as 28%; the Emax was found to be 31%.

Take `Cc1c(OC2CCN(C(=O)OC(C)C)CC2)ncnc1N1CCn2nccc21` [Example 1, Isopropyl 4-{[6-(2,3-dihydro-1H-imidazo[1,2-b]pyrazol-1-yl)-5-methylpyrimidin-4-yl]oxy}piperidine-1-carboxylate]: the “Intrinsic Activity* (cAMP)” value came out at 27% and the Emax was 28%.

As for `Cc1c(O[C@H]2CCN(C(=O)OC3(C)CC3)C[C@H]2F)ncnc1N1CCn2nccc21` (single isomer, unassigned) [Example 6], the EC50 is 40 nM and 140 nM and 48 nM and 88 nM and 82 nM; the “Intrinsic Activity* (cAMP)” value is 82% and 89% and 76% and 83%; the Emax came out at 86%.

Turning to `Cc1c(OC2CCN(C(=O)OC3(C)CC3)CC2)ncnc1N1CCn2nccc21` [Example 2, 1-Methylcyclopropyl 4-{[6-(2,3-dihydro-1H-imidazo[1,2-b]pyrazol-1-yl)-5-methylpyrimidin-4-yl]oxy}piperidine-1-carboxylate], the EC50 was 117 nM and 255 nM; the Emax stood at 71%.

Take `Cc1c(O[C@@H]2CCN(C(=O)OC3(C)CC3)C[C@@H]2F)ncnc1N1CCn2nccc21` (single isomer, unassigned) [Example 5]: the EC50 was 38 nM and 36 nM and 34 nM and 49 nM and 47 nM; the “Intrinsic Activity* (cAMP)” value is 68% and 81% and 61%; the Emax is 76%.

In the case of `Cc1c(O[C@H]2CCN(C(=O)OC3(C)CC3)C[C@H]2F)ncnc1N1CCn2nccc21` (racemic) [Example 3, 1-Methylcyclopropyl (3R,4S)-4-{[6-(2,3-dihydro-1H-imidazo[1,2-b]pyrazol-1-yl)-5-methylpyrimidin-4-yl]oxy}-3-fluoropiperidine-1-carboxylate (racemic)], the EC50 was 66 nM and 68 nM; the “Intrinsic Activity* (cAMP)” value was 61%; the Emax was 80%.

Values taken from US20120295845A1, “IMIDAZO-PYRAZOLES AS GPR119 INHIBITORS” (Pfizer Inc, priority 2009, published 2012).
